Measurements: paper PMC7180948, “New Insights into 4-Anilinoquinazolines as Inhibitors of Cardiac Troponin I–Interacting Kinase (TNNi3K)” (Molecules, 2020)

Key:
Test in all cases: biochemical
Parameters in all cases: KINOMEscan competition binding panel (Eurofins DiscoverX), single concentration, percent inhibition
Settings in all cases: read-out: 15 at 1 µM % inhibition
RAF1 = RAF1 (Homo sapiens, UniProt P04049)
In short: (§1)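 Binding was profiled in the KINOMEscan panel of over 400 human kinases, with each compound tested at a single concentration of 1 µM to map selectivity.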

[1] = target: T1, RSK1(Kin.Dom.1-N-terminal) (Homo sapiens, UniProt Q15418)
T1 construct: gene RPS6KA1; Kin.Dom.1-N-terminal
In short: as §1

HASPIN = HASPIN (Homo sapiens, UniProt Q8TF76)
In short: as §1

EPHA2 = EPHA2 (Homo sapiens, UniProt P29317)
In short: as §1

[2] = target: EGFR(L747-E749del, A750P) (Homo sapiens, UniProt P00533, A750P/DEL747-749)
In short: as §1

[3] = target: T2, ABL1(E255K)-phosphorylated (Homo sapiens, UniProt P00519, E255K)
T2 construct: phosphorylated
In short: as §1

AURKC = AURKC (Homo sapiens, UniProt Q9UQB9)
In short: as §1

ZAP70 = ZAP70 (Homo sapiens, UniProt P43403)
In short: as §1

MAP4K5 = MAP4K5 (Homo sapiens, UniProt Q9Y4K4)
In short: as §1

FGR = FGR (Homo sapiens, UniProt P09769)
In short: as §1

DYRK1B = DYRK1B (Homo sapiens, UniProt Q9Y463)
In short: as §1

FER = FER (Homo sapiens, UniProt P16591)
In short: as §1

LTK = LTK (Homo sapiens, UniProt P29376)
In short: as §1

FLT3(K663Q) = FLT3(K663Q) (Homo sapiens, UniProt P36888, K663Q)
In short: as §1

ALK(C1156Y) = ALK(C1156Y) (Homo sapiens, UniProt Q9UM73, C1156Y)
In short: as §1

FYN = FYN (Homo sapiens, UniProt P06241)
In short: as §1

BRSK1 = BRSK1 (Homo sapiens, UniProt Q8TDC3)
In short: as §1

CDK4-cyclinD1 = target: T3, CDK4-cyclinD1 (Homo sapiens, UniProt P11802)
T3 construct: cyclinD1
In short: as §1

ERN1 = ERN1 (Homo sapiens, UniProt O75460)
In short: as §1

NDR1 = target: T4, NDR1 (Homo sapiens, UniProt Q15208)
T4 construct: gene STK38
In short: as §1

CSNK1A1 = CSNK1A1 (Homo sapiens, UniProt P48729)
In short: as §1

LIMK1 = LIMK1 (Homo sapiens, UniProt P53667)
In short: as §1

EPHB3 = EPHB3 (Homo sapiens, UniProt P54753)
In short: as §1

PAK7 = target: T5, PAK7 (Homo sapiens, UniProt Q9P286)
T5 construct: gene PAK5
In short: as §1

Chain of FER (P16591 whole entry): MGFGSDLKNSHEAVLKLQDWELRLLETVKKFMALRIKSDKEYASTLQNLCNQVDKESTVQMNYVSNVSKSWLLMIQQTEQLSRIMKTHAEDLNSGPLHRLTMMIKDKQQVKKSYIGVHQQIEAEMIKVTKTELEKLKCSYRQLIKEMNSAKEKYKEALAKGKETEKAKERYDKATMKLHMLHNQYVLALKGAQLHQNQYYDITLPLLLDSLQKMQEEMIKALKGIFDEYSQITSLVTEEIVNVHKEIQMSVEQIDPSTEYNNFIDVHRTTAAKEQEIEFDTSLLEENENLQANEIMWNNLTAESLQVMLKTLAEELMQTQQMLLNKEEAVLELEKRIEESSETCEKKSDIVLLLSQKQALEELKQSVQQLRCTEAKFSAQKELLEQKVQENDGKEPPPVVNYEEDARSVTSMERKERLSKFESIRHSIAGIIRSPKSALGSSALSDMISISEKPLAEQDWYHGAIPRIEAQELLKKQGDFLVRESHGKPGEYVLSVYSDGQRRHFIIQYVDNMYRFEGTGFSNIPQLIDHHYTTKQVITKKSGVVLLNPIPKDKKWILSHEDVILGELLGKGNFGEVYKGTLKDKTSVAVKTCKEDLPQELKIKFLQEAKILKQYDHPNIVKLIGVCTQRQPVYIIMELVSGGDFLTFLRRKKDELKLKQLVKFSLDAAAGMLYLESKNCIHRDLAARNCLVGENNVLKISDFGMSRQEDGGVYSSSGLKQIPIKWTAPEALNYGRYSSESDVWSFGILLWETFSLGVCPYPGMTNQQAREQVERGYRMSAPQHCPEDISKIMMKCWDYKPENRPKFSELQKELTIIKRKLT
Chain of LTK (P29376 whole entry): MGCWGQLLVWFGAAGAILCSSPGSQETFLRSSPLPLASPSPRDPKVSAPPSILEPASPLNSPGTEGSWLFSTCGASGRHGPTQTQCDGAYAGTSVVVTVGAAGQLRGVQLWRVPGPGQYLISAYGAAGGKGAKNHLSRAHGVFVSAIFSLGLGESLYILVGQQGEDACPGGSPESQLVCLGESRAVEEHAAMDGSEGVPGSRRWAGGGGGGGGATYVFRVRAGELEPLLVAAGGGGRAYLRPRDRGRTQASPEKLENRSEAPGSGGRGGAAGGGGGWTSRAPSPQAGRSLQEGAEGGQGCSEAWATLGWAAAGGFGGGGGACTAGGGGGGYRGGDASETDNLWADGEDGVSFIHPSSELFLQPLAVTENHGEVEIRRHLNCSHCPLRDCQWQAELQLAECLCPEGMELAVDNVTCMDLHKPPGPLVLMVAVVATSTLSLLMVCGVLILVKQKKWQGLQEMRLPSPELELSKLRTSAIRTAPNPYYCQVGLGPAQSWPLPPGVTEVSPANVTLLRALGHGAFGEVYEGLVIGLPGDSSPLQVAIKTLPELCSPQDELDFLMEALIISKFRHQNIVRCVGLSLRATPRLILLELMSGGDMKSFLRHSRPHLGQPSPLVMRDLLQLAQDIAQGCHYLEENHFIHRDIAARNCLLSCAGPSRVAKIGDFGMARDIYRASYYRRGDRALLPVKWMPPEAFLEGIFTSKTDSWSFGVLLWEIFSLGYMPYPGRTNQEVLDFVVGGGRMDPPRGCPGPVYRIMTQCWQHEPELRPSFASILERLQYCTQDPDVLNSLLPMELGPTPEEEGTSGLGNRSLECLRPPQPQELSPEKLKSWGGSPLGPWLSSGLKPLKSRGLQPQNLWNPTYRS
T4 sequence (Q15208 whole entry): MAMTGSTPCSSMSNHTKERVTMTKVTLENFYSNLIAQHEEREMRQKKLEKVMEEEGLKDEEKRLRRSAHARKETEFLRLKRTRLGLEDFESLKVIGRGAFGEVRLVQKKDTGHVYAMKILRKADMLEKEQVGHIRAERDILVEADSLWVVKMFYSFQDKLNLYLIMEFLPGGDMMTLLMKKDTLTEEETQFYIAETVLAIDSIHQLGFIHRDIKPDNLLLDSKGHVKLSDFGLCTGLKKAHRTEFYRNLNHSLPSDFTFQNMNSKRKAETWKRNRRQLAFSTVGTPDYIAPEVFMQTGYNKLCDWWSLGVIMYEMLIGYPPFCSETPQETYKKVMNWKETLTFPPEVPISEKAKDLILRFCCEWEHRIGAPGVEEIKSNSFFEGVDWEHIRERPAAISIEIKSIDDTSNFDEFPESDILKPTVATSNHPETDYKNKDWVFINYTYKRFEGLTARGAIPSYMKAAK
T1 sequence (Q15418 whole entry): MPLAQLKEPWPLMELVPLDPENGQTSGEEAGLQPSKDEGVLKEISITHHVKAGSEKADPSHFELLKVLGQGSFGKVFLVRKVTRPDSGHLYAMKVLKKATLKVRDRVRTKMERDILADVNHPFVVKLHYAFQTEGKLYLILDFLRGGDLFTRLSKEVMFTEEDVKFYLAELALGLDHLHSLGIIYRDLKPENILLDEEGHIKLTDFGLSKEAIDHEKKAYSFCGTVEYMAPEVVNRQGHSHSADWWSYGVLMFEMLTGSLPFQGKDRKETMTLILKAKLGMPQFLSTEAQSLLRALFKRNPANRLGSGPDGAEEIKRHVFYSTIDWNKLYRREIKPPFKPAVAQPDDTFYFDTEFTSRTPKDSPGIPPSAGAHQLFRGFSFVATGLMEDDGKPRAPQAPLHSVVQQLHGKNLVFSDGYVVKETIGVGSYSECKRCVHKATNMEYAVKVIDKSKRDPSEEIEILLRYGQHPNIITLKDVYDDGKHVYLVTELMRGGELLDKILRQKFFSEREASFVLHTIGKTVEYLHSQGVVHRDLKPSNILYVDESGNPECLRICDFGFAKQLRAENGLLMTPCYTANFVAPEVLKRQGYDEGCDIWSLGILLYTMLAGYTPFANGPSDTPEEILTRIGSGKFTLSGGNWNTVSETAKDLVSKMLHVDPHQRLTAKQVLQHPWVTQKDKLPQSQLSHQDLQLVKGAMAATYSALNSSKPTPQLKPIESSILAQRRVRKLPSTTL
Chain of FGR (P09769 whole entry): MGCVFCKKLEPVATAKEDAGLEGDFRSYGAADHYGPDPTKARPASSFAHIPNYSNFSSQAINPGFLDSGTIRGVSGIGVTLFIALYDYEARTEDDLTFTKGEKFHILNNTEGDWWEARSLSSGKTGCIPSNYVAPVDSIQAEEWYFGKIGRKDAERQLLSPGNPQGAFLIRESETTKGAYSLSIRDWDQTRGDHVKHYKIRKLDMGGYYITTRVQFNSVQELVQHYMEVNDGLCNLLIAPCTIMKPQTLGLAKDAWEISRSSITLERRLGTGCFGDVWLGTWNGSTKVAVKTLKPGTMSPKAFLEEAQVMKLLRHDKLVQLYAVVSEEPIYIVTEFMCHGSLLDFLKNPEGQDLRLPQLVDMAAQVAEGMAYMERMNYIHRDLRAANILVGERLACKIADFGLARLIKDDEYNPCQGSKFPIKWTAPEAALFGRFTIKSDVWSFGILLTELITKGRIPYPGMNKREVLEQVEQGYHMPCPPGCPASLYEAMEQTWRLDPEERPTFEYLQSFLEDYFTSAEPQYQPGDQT
Chain of ERN1 (O75460 whole entry): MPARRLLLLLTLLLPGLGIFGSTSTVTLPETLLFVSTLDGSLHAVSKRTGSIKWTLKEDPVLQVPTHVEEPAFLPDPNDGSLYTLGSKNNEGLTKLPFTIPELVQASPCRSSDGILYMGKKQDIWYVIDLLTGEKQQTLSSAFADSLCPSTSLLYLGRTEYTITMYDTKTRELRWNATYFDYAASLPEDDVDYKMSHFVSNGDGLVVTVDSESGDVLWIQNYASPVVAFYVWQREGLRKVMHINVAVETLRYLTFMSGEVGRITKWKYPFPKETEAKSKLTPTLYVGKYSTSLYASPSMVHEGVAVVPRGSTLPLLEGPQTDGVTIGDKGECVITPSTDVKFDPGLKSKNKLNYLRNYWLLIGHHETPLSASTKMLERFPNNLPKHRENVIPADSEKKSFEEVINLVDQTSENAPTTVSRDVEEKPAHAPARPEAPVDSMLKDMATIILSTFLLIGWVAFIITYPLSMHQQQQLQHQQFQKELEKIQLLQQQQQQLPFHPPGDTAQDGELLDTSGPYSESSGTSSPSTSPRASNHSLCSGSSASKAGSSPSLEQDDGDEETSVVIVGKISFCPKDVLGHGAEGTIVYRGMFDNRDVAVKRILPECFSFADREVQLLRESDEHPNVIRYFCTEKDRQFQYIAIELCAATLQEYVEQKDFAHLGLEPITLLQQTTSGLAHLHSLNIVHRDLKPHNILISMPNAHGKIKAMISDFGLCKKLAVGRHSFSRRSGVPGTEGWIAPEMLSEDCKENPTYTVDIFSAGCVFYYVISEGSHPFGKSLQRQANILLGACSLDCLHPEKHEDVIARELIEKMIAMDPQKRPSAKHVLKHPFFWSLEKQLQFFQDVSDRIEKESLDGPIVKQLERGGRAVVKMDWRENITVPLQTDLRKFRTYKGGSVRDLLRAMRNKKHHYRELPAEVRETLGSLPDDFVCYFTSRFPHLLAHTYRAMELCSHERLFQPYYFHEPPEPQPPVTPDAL
Chain of CSNK1A1 (P48729 whole entry): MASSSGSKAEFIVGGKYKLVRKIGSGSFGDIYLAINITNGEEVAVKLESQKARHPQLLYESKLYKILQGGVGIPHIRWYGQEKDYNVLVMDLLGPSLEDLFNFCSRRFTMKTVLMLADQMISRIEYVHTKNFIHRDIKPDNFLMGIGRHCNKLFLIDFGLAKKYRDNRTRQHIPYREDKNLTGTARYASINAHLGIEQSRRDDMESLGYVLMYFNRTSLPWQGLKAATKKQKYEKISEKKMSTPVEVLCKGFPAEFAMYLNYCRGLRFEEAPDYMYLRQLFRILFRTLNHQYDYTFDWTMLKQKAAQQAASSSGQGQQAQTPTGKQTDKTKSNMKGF
Chain of AURKC (Q9UQB9 whole entry): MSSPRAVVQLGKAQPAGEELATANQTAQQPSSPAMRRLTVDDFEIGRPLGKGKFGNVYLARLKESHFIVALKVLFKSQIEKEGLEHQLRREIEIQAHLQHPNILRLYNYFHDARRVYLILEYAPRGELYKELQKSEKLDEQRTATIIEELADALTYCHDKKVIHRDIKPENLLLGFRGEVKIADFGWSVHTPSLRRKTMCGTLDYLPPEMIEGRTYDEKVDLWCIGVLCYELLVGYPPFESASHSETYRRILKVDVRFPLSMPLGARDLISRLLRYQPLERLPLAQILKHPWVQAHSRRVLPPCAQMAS

In the case of CNS(=O)(=O)c1ccc(N(C)C)c(Nc2nc(C)nc3cc(OC)c(OC)cc23)c1 [compound 15, 3-((6,7-dimethoxy-2-methylquinazolin-4-yl)amino)-4-(dimethylamino)-N-methylbenzenesulfonamide], the inhibition at 1 µM (RAF1) is reported as 0%, the inhibition at 1 µM [1] is reported as 0% and the inhibition at 1 µM (HASPIN) is reported as 0%. It also gave an inhibition at 1 µM (EPHA2) of 0%, an inhibition at 1 µM [2] of 0% and an inhibition at 1 µM [3] of 4%. It also gave an inhibition at 1 µM (AURKC) of 0%, an inhibition at 1 µM (ZAP70) of 0% and an inhibition at 1 µM (MAP4K5) of 3%. It also gave an inhibition at 1 µM (FGR) of 0%, an inhibition at 1 µM (DYRK1B) of 17% and an inhibition at 1 µM (FER) of 0%. For the same molecule, the inhibition at 1 µM (LTK) was 12%, the inhibition at 1 µM (FLT3(K663Q)) was 10% and the inhibition at 1 µM (ALK(C1156Y)) was 4%. The inhibition at 1 µM (FYN) was 0%, the inhibition at 1 µM (BRSK1) was 0% and the inhibition at 1 µM (CDK4-cyclinD1) was 36%. For the same molecule, the inhibition at 1 µM (ERN1) was 3%, the inhibition at 1 µM (NDR1) was 13% and the inhibition at 1 µM (CSNK1A1) was 0%. The inhibition at 1 µM (LIMK1) was 0%, the inhibition at 1 µM (EPHB3) was 0% and the inhibition at 1 µM (PAK7) was 0%.
